# Data from US20260315564A1, “THE USE OF TP3 (THYMOPENTIN ANALOG) BY INCREASING THE ACTIVITY AND NUMBER OF T-CELLS INVOLVED IN THE DEFENSE MECHANISM OF THE IMMUNE SYSTEM OF MAMMALS, FOR THE PREVENTION OR TREATMENT OF DISEASES TO EXTEND THE AVERAGE LIFESPAN” (priority 2023, published 2026).
# Marks after values point to notes of the source that are not given here. Residues, ends and D or L forms follow the SMILES beside them.
# How the values were obtained:
# [1] = 12-24 months, Friedmann 1985, in words; cited from earlier work
# [2] = system: T cells; conditions: Schlesinger et al. 1978, in words; cited from earlier work
# [3] = system: Thy 1+, Lyt 1+, Lyt 2+ spleen cells; test: Spleen cell subpopulations (Thy 1, Lyt 1, Lyt 2) in adult thymus-removed (Tx) mice; assay type: in vivo, C57BL mice (adult thymectomized); conditions: male, 1.0 mg/kg/ip, n = 8/group
# Procedure: • D.1/Direct cytotoxicity test/for the detection of Thy, Lyt antigens (Fathman 1979, in Immunol Meth I. Eds. Lefkovits, Pernis, Acad Press, New York, pp. 212-213.) was used. Subpopulation ratios were determined from bone marrow cells, thymus, and spleen cells isolated from the lymphatic organs of mice. The cell suspensions (1.087-1.088 g/cm3) were centrifuged ona density gradient (2000 rpm, 20 minutes), and the cells were washed 3× with RPMI1640 medium containing 0.3% BSA, then adjusted to 107/ml. Thyl, Lyt 1, Lyt2 monoclonal antibodies (McAb/Ando I. (ICRF Human Tumor Immunol. UCM Med Sch. London) were obtained. 25 μl McAb and 25 ul cell suspension were incubated (60′, 40C1), after centrifugation (1250 rpm 10′), the cells were resuspended with 40 μul of diluted (1:50) rabbit complement, then incubated (370C, 60′). The cell suspensions were stained with 1:5 dilution of Eosin Y (Jansen). the ratio of live to non-living cells was determined.
# (§1) After thymectomy, mice were treated with doses of 1 mg/kg, i.p. once a week for six weeks. Thy 1+, Lyt1+, and Lyt2+ in the spleen cells of mice at the age of 13 weeks cell proportions were determined based on what was previously described.
# [4] = system: antibody production (IgM); test: Antibody production (IgM) in aged mice; assay type: in vivo, aged mice (Balb/c); conditions: second value column under head 'PFC IgM/logx^2'; aged mice 18 months old; n = 8/group; young control 84.1, aged 41.0
# [5] = system: Active E-rosette forming cells (human lymphocytes); test: Active E-rosette forming cells; assay type: cell-based; conditions: control 6.3 (TP5), 5.2 (TP3)
# Procedure: The test was carried out according to the method of (Wybran and Fundenberg 1973). 107/ml lymphocytes from either healthy blood donors or autoimmune patients were included in the tests. The effect of the substances was tested in the presence of 100 μl of […]. test compound. After an incubation period, 100 μul of cell suspension was placed on a glass slide, fixed for 3 minutes (with 50 μl of 3% glutaraldehyde solution), and stored in a humid chamber until evaluation.
# [6] = system: healthy human lymphocytes; test: E-rosette test, ex vivo on healthy human cells; assay type: cell-based; parameters: effect ex vivo on healthy human cells (rosette-forming cells): unit not given here; conditions: for effect ex vivo on healthy human cells (rosette-forming cells): control 27.8 (TP5), 30.3 (TP3)
# Procedure: Blood from donors was used for our experiments, where the blood samples were used either from animals or human donors. The heparinized blood samples were separated on a (FicolUromiro/Pharmacia-Bracco) gradient (Boyum 1968). 2×10^6 and 107 lymphocytes/ml cells were tested in E-rosette tests, the blood donors were the following animals: • Rat: Hannover Wistar (Richter) newborn rats were used to study the maturation of the immune response. As our mothers, 12 (maximum) randomized newborns were placed (21±10C, humidity: min. 65%) in a test litter. • Guinea pig: Donkin-Hartley (Lati) 250-300 g male animals were included for the DTH reaction test. • 2.3.3/Mice: Mouse strains of different genetic backgrounds were used: CFLP (outbred) from the Lati stock), Balb/c (inbred) and Balb/c nu/nu mice from the SzBC/Szeged stock.
# In a preliminary study, the ED75 inhibitory effect of azathioprine was determined (Verhagen et al., 1980) and 500 μg/ml was used during the studies. An equal volume (200 μl) of activityinhibiting and isolated cell suspension and peptides ([…]) were measured. After 1 h (370C) incubation, the cell suspensions received 200 μl of 1% SRBC suspension and then centrifuged (90×g 5 minutes), 400 μl of the supernatant was aspirated.
# The number of rosette-forming cells was counted. The activity was determined as percent recovery (R %). […]
# [7] = system: transplanted skin graft rejection; test: Rejection of the transplanted skin graft in adult thymus-removed (Tx) mice; assay type: in vivo, C57BL mice (adult thymectomized); conditions: for rejection of the transplanted skin graft: n = 8/group
# Procedure: 1.3./Determination of the number of plaque-forming cells (PFC) (using rat spleen cells) The chopped splenocytes were placed in a culture medium (Parker 199) and then shaken with a shaker for 1 minute. The cells were suctioned from the surface of the rapidly settling tissue debris. Red blood cells were removed osmotically. Cell suspensions were adjusted to 107/ml. The cell suspensions were mixed with a 15% BVVT cell suspension in a ratio of 2:1. PFC was determined with the mixture using a modified chamber technique according to Channingham et al., 1966). Before filling the chamber, 50 μl of fresh diluted guinea pig serum (1:20) was added. The chambers (2-2/slide) were incubated (370C 45′) after sealing with paraffin, the formed plaques were counted under a microscope (at 400× magnification) within 2 hours Marker tests related to the rejection reaction of an adult thymus-depleted mouse skin graft 1.4./Rejection of skin transplants in nude mice after treatment with TP fragments (Snell et al., Transplantation 5, 492, 1967).
# as §1
# 5. The Effect of TP3 was Tested on the Activity of the Immune System by Rejection of Skin Graft
# • in adult thymectomized (Tx) C57BL mice.
structure (smiles),measurement,setting,value
CC(C)[C@H](NC(=O)[C@H](CC(=O)O)NC(=O)[C@H](CCCCN)NC(=O)[C@@H](N)CCCN=C(N)N)C(=O)N[C@@H](Cc1ccc(O)cc1)C(=O)O [TP5] (H-RKDVY-OH),safety in patients,[1],"well-used, safe drug candidate"
same,differentiation of T cells,[2],induces the differentiation of T cells
same,Lyt1/Lyt2,"[3]; control 1.77, Tx 1.96",1.63
same,Lyt 2 spleen cells,"[3]; control 13.7, Tx 9.6",14.2* %
same,Lyt 1 spleen cells,"[3]; control 24.3, Tx 18.8",23.2* %
same,Thy 1 spleen cells,"[3]; control 30.1, Tx 8.1",21.2%
same,IgM/logx^2,[4],44.7 logx^2
same,Active E-rosette forming cells,[5]; 10^-5 mol/l,8.6*
same,Active E-rosette forming cells,[5]; 10^-7 mol/l,7.5
same,Active E-rosette forming cells,[5]; 10^-9 mol/l,7.2
same,Active E-rosette forming cells,[5]; 10^-11 mol/l,10.7*
same,Active E-rosette forming cells,[5]; 10^-13 mol/l,7.9*
same,effect ex vivo on healthy human cells (rosette-forming cells),[6]; 10^-5 mol/l,26.9
same,effect ex vivo on healthy human cells (rosette-forming cells),[6]; 10^-6 mol/l,24.4
same,effect ex vivo on healthy human cells (rosette-forming cells),[6]; 10^-7 mol/l,29.4
same,effect ex vivo on healthy human cells (rosette-forming cells),[6]; 10^-8 mol/l,27.1
same,effect ex vivo on healthy human cells (rosette-forming cells),[6]; 10^-9 mol/l,26.1
same,effect ex vivo on healthy human cells (rosette-forming cells),[6]; 10^-11 mol/l,25.5
same,effect ex vivo on healthy human cells (rosette-forming cells),[6]; 10^-12 mol/l,28.4
same,effect ex vivo on healthy human cells (rosette-forming cells),[6]; 10^-13 mol/l,25.9
same,effect ex vivo on healthy human cells (rosette-forming cells),[6]; 10^-14 mol/l,26.1
same,activity on lymphocytes from healthy individuals,[6]; in words,ineffective
same,rejection of the transplanted skin graft,"[7]; female Tx C57BL mice, untreated control 14.5, Tx 54.6",23.1**
same,rejection of the transplanted skin graft,"[7]; male Tx C57BL mice, untreated control 27.8, Tx 59.8",41.3
same,recovery of T cells / shortening of skin graft survival time,"[7]; male mice, rank in words",TP5>TP3
